Assay results as given in US7332522B2, “Liver function protecting or ameliorating agent” (Kyowa Hakko Kogyo Co., Ltd., priority 2001, dated 2008).
Where two headings read alike, the source gives them in different places.

How the values were obtained:
mast cells = conditions: at 100 μM; induced by compound 48/80 or calcium ionophore A23187; cited from earlier work
[1] = tested on: rat skin passive anaphylaxis; conditions: oral administration, cited from earlier work
[2] = tested on: rat gastric ulcer induced by ethanol hydrochloride; conditions: 75 mg/kg, oral administration; cited from earlier work
rat liver microsome = conditions: cited from earlier work
[3] = tested on: Galactosamine-induced Rat Hepatopathy; assay: Suppression of galactosamine-induced rat hepatopathy, GPT level in serum; type: in vivo, Male Wistar white rats; conditions: 15 days, serum 22 h after galactosamine 350 mg/kg i.p., relative to Comparative Example 1 feed = 100%, average ± standard error
Procedure: Male Wistar white rats (150±20 g, purchased from Japan SLC) were kept for at least 3 days under a fixed condition (temperature: 24±2° C., humidity: 60±5%, light and dark interval: 12 hours) for adaptation, and then fed respectively with the feeds produced in Examples 4-8 and the feed produced in Comparative Example 1 for 15 days. On the 14th day, 350 mg/kg of galactosamine (dissolved in physiological saline at a concentration of 35 mg/ml, and adjusted to pH 7.1) was intraperitoneally administered to each rat. Twenty-two hours after the administration of galactosamine, each of the rats was subjected to laparotomy under anesthesia with Nembutal and blood was collected.
Using thus obtained blood samples, blood GPT activity was measured as an indication of a liver function in the following manner. The collected blood was coagulated and separated by centrifugation to obtain a serum. The GPT level in the serum was measured using Fuji Drychem System 3500 (manufactured by Fuji Photo Film Co., Ltd.) with thus obtained serum. The GPT activity of each test group was calculated as the relative value (%) from the value obtained for each Example based on the value obtained for the feed in Comparative Example 1 expressed as 100%. The value is expressed in terms of average value±standard error and the statistical test of significance was carried out by Student's T-test.

[4] = 200 mg/kg; cited from earlier work
hyaluronidase = conditions: cited from earlier work
leukocyte = conditions: in vitro; cited from earlier work
[5] = iron rhodanate method; cited from earlier work
[6] = tested on: Staphylococcus epidemidis; conditions: at 1000 ppm; cited from earlier work
Staphylococcus aureus = conditions: at 1000 ppm; cited from earlier work

Q: Which “suppression of release of histamine from mast cells” value (from here on “suppression of release of histamine”) (mast cells) does the source give for `O=C1O[C@H]([C@@H](O)c2ccc(O)cc2)c2cccc(O)c21` [hydramacrophyllol A, reference compound] here?
A: Its value is “not suppressed”.

Q: Which “suppression of release of histamine” value (mast cells) does the source give for `O=C1O[C@@H]([C@@H](O)c2ccc(O)cc2)c2cccc(O)c21` [hydramacrophyllol B, reference compound] here?
A: Its value is “not suppressed”.

Q: With `O=C1OC(c2ccc(O)cc2)Cc2cccc(OC3OC(CO)C(O)C(O)C3O)c21` (stereo not shown) [hydrangenol 8-O-glucoside] as the molecule, how does the “suppression of release of histamine” value (mast cells) read?
A: The value was “not suppressed”.

Q: What about the “suppression of rat skin passive anaphylaxis” value ([1]; 300 and 500 mg/kg) of the same molecule?
A: Its value is “suppress”.

Q: What does the source list for `O=C1OC(c2ccc(O)cc2)Cc2cccc(O)c21` (stereo not shown) [hydrangenol]?
A: suppression of rat gastric ulcer induced by ethanol hydrochloride [2]: do not suppress; suppression of release of histamine from mast cells (mast cells): not suppressed; suppressive activity on NADPH dependent lipid peroxidation (rat liver microsome): weak suppressive activity; suppression of rat skin passive anaphylaxis ([1]; 500 mg/kg): suppress; GPT activity (%) ([3]; feed of Example 7, hydrangenol 0.324% in feed): 64.6 ± 116.5%; GPT activity (%) ([3]; feed of Example 8, hydrangenol 0.108% in feed): 27.8 ± 45.4%; cholagogic activity [4]: do not exhibit this activity; hyaluronidase inhibitory activity (hyaluronidase): hyaluronidase inhibitory activity; concentration active in differentiation-inducing activity on leukocyte (leukocyte): 300 µM; suppressive activity on linoleic acid oxidation [5]: weak suppressive activity

Q: For `COc1ccc(C2Cc3cccc(OC4OC(CO)C(O)C(O)C4O)c3C(=O)O2)cc1O` (stereo not shown) [phyllodulcin 8-O-glucoside], which “suppression of release of histamine” value (mast cells) is on record?
A: The value was “not suppressed”.

Q: And the “suppression of rat skin passive anaphylaxis” value ([1]; 300 and 500 mg/kg)?
A: Its value is “suppress”.

Q: With `COc1ccc([C@H]2Cc3cccc(O)c3C(=O)O2)cc1O` [phyllodulcin] as the molecule, how does the proliferation suppressive activity [6] read?
A: Its proliferation suppressive activity is “proliferation suppressive activity”.

Q: What about the “suppression of rat gastric ulcer induced by ethanol hydrochloride” value [2] of the same molecule?
A: The value was “do not suppress”.

Q: What about the “suppression of release of histamine” value (mast cells) of the same molecule?
A: The value was “not suppressed”.

Q: What about the “suppressive activity on NADPH dependent lipid peroxidation” value (rat liver microsome) of the same molecule?
A: Its value is “suppressive activity at a similar level to α-tocopherol”.

Q: And the “suppression of rat skin passive anaphylaxis” value ([1]; 300 and 500 mg/kg)?
A: Its value is “does not suppress”.

Q: And the “GPT activity (%)” value ([3]; feed of Example 4, phyllodulcin 0.366% in feed)?
A: The value was 11.8 ± 18.0%.

Q: And the “GPT activity (%)” value ([3]; feed of Example 5, phyllodulcin 0.122% in feed)?
A: Its value is 54.7 ± 32.2%.

Q: And the “GPT activity (%)” value ([3]; feed of Example 6, phyllodulcin 0.037% in feed)?
A: Its value is 52.7 ± 59.9%.

Q: And the proliferation suppressive activity (Staphylococcus aureus)?
A: The proliferation suppressive activity was “proliferation suppressive activity”.

Q: And the cholagogic activity [4]?
A: Its cholagogic activity is “do not exhibit this activity”.

Q: And the “concentration active in differentiation-inducing activity on leukocyte” value (leukocyte)?
A: Its value is 300 µM.

Q: And the “suppressive activity on linoleic acid oxidation” value [5]?
A: Its value is “more potent suppressive activity than α-tocopherol or BHA”.

Q: Which “suppression of rat skin passive anaphylaxis” value ([1]; 300 and 500 mg/kg) does the source give for `O=c1oc(-c2ccc(O)c(O)c2)cc2cccc(O)c12` [thunberginol A] here?
A: Its value is “suppress”.

Q: And the “concentration active in differentiation-inducing activity on leukocyte” value (leukocyte)?
A: Its value is 100 µM.

Q: Which “suppression of rat skin passive anaphylaxis” value ([1]; 300 and 500 mg/kg) does the source give for `O=C1O/C(=C\c2ccc(O)c(O)c2)c2cccc(O)c21` [thunberginol F, reference compound] here?
A: Its value is “suppress”.
